{"source": "patent US20240279225A1", "about": "“COMPOUNDS AND METHODS FOR THERANOSTIC TARGETING OF PARP ACTIVITY” (BOARD OF REGENTS, THE UNIVERSITY OF TEXAS SYSTEM, priority 2021, published 2024)", "key": {"PARP1 [1]": {"biological_target": "T1, PARP1 (Homo sapiens, UniProt P09874)", "T1 sequence (P09874 whole entry)": "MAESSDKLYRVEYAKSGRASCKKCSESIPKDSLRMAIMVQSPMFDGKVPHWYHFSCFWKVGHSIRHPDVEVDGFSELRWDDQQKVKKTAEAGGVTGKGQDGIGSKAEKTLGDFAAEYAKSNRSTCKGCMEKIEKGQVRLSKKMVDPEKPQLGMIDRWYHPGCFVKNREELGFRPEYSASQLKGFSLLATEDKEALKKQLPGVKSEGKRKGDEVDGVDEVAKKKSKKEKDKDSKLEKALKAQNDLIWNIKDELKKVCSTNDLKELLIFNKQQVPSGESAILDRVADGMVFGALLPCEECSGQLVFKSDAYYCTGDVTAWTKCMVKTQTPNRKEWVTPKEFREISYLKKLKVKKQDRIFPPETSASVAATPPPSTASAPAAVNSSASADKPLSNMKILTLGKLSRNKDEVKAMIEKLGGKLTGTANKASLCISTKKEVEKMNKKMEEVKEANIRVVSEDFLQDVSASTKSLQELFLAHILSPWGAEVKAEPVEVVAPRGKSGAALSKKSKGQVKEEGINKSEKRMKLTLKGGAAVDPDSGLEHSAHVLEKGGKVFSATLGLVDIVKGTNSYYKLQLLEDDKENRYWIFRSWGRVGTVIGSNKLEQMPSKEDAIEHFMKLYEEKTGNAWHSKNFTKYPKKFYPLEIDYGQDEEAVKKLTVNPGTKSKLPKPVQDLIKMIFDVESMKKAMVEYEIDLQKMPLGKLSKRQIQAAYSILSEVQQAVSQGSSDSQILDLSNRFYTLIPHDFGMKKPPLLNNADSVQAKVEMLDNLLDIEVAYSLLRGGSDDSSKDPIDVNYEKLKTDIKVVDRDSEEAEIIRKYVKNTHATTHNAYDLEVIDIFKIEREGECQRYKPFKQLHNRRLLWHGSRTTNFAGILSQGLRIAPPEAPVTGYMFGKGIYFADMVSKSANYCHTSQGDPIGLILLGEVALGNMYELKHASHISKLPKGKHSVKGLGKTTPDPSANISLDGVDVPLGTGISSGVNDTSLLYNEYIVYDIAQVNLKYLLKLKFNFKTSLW", "details": "purified enzyme assays, background values; cited from earlier work"}, "[2]": {"details": "mouse models, cited from earlier work"}, "[3]": {"details": "humans, eight subjects with cancer and eight healthy volunteers; cited from earlier work"}, "MCF-7 empty vector cells": {"system": "MCF-7 empty vector cells", "test": "Cellular uptake of ^18F-Talazoparib, MCF-7 empty vector cells", "assay_type": "cell-based", "procedure": "(§1) All experiments were performed in quadruplicate in a 24 well plate format. […] Experiment that abrogated metabolism were performed at 4° C., a temperature at which cellular membranes become less fluid and permeability is low. After 120 min, an aliquot of the cell media (200 μl) was obtained for gamma counting, the remaining media removed, and cells washed with MEBSS. Cells were then lysed with 1% SDS, 10 mM sodium borate for 30 min at room temperature. […] Protein contents were quantified using BCA protein assay kit (Thermos Scientific) according to the manufacture's protocol using bovine serum albumin (BSA) as the protein standard."}, "[4]": {"test": "Stability in full human plasma at 37° C.", "assay_type": "in vitro ADME"}, "PARP1 [5]": {"biological_target": "T2, PARP1 (Mus musculus, UniProt P11103)", "T2 construct": "from tissue; host or cells: Lymphoid tissue and liver of a living nude female mouse", "T2 sequence (P11103 whole entry, the tested form may be a part)": "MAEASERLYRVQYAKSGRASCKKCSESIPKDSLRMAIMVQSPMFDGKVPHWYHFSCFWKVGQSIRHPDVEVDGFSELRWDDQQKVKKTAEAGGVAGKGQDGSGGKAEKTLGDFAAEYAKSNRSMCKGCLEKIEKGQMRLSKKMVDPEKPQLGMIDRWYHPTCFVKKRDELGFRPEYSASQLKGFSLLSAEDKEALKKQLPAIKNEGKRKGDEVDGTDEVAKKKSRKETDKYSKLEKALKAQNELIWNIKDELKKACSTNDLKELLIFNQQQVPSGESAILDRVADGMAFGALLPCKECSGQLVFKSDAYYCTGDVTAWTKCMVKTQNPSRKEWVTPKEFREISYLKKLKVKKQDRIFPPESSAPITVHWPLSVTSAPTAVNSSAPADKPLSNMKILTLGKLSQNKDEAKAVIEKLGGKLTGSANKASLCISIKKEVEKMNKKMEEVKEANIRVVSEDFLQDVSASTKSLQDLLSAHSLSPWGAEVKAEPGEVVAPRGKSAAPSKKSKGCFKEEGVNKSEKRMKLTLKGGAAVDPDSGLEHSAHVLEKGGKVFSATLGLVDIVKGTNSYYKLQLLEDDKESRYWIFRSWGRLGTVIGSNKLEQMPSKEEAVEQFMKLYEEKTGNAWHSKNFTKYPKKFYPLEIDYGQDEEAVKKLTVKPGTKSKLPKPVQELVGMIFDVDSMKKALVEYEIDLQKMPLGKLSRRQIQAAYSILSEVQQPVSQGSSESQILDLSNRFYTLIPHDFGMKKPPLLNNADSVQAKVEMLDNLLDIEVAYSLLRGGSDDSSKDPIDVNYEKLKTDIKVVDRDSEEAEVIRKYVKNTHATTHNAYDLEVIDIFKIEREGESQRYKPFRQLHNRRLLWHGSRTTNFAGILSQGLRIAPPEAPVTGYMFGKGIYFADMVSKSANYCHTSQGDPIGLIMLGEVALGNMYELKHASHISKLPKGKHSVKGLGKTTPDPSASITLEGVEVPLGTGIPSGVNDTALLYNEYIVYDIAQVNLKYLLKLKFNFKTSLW", "test": "In vivo whole body biodistribution and blocking by small animal PET/CT", "procedure": "Preliminary PET images were acquired for 10 min using a 15 cm field of view (FOV); CT images were acquired for fusion using a 7 cm FOV and automatically “stitched” and fused to the PET imaging in the reconstruction software (Albira Suite, Bruker). […] Image data were decay corrected to injection time (Albira, Bruker) and expressed as % ID/cc or SUV as indicated (PMOD, PMOD Technologies). Actual injected dose was calculated based on measuring the pre- and post-injection activity in the syringe with a dose calibrator (Capintec) and mice were individually weighed to calculate individual standardized uptake values (SUV).\nIn vivo whole body biodistribution and blocking experiments were performed using a small animal PET/CT scanner after the injection of ^18F-Talazoparib (˜100 μCi) in a nude female mouse; images were acquired two hours post injection and decay corrected to the injection time."}, "[6]": {"test": "Shelf stability in PBS (10% EtOH)", "assay_type": "physicochemical"}, "[7]": {"system": "MCF-7 cells stably transfected with MDR1 P-glycoprotein (Pgp)", "test": "Cellular uptake of ^18F-Talazoparib, MCF-7 cells expressing MDR1 Pgp", "procedure": "as §1"}, "PARP1 [8]": {"biological_target": "T1, PARP1", "test": "PARP1 apoptosis assay kit (Trevigen), inhibition of purified PARP1 enzyme activity", "assay_type": "biochemical", "details": "racemic mixture, three replicates per concentration"}}, "note": "“Also recorded” adds a separate entry of the source. Where two headings read alike, the source gives them in different places."}
{"molecule": "O=C1NCCn2c(-c3ccc(OCCF)cc3)nc3cccc1c32", "note": "[^18F-FTT]", "values": [{"measurement": "IC50", "setting": "PARP1 [1]", "value": 6.3, "unit": "nM"}]}
{"molecule": "O=C1NCCn2c(-c3ccc(OCC[18F])cc3)nc3cccc1c32", "note": "[^18F-FTT]", "values": [{"measurement": "intact parent molecule observed in the blood", "setting": "[2]; after 5 minutes", "value": 55, "unit": "%"}, {"measurement": "intact parent molecule observed in the blood", "setting": "[2]; after 30 min", "value": 13, "unit": "%"}, {"measurement": "organ uptake on PET imaging", "setting": "[3]", "value": "high uptake in spleen, pancreas, and liver"}]}
{"molecule": "Cn1ncnc1C1c2n[nH]c(=O)c3cc([18F])cc(c23)NC1c1ccc(F)cc1", "note": "(stereo not drawn) [^18F-Talazoparib, 5-[^18F]fluoro-8-(4-fluorophenyl)-9-(1-methyl·1H·1,2,4-triazol-5-yl)-2,7,8,9-tetrahydro-3H-pyrido[4,3,2-de]phthalazin-3-one]", "values": [{"measurement": "cell uptake in presence of excess non-radioactive Talazoparib", "setting": "MCF-7 empty vector cells; 37° C., 100 nM non-radioactive Talazoparib preincubated 30 min", "value": "completely blocked"}, {"measurement": "cell uptake of tracer", "setting": "MCF-7 empty vector cells; 120 min incubation at 37° C., compared to 4° C.", "value": "high uptake of the tracer compared to cells incubated at 4 °C"}, {"measurement": "effect of MDR inhibitors on cell uptake", "setting": "MCF-7 empty vector cells; LY-335979 or CP-100356 preincubated 30 min", "value": "no effect"}, {"measurement": "stable in full human plasma", "setting": "[4]", "value": "up to 4 h"}, {"measurement": "blocking of lymphoid tissue and liver uptake by cold Talazoparib", "setting": "PARP1 [5]; 0.3 mg/kg cold Talazoparib IV 60 minutes before tracer", "value": "could be blocked by excess cold Talazoparib; also recorded: blockade of target engagement of PARP1"}, {"measurement": "excretion pathway", "setting": "PARP1 [5]; 2 hr static images, vehicle-treated nude mice", "value": "mixed excretion pathway (renal and hepatobiliary clearance)"}, {"measurement": "tissue uptake on PET images", "setting": "PARP1 [5]; nude female mouse, ~100 μCi, two hours post injection", "value": "uptake in the lymphoid tissue (LT) located at the base of the neck, in the liver (L), and in excretory organs, such as bladder and intestine"}, {"measurement": "shelf stability", "setting": "[6]", "value": "up to 4 h"}, {"measurement": "MDR1 Pgp transport substrate", "setting": "[7]", "value": "recognized as a transport substrate by MDR1 Pgp"}, {"measurement": "basal retention at 4° C.", "setting": "[7]; MDR1 Pgp expressed, 4° C.", "value": "further reduced"}, {"measurement": "net retention of tracer", "setting": "[7]; MDR1 Pgp expressed, 37° C., 120 min", "value": "drastic decrease in the net retention"}, {"measurement": "basal retention with excess cold Talazoparib", "setting": "[7]; MDR1 Pgp expressed, excess cold Talazoparib", "value": "fully displaced"}, {"measurement": "cellular retention with Pgp-mediated efflux inhibited", "setting": "[7]; MDR1 Pgp expressed, with LY or CP", "value": "increased back to levels compared to MCF-7 cells lacking MDR1 Pgp"}]}
{"molecule": "methyl 2-(4-bromophenyl)-7-fluoro-3-(1-methyl-1H-1,2,4-triazol-5-yl)-4-oxo-1,2,3,4-tetrahydroquinoline-5-carboxylate [Compound 1]", "values": [{"measurement": "IC50", "setting": "PARP1 [8]", "value": 2.33, "unit": "nM"}]}
